Values joined by “and” are separate entries in the source; they are usually repeats but may differ in a detail not shown here. Equal entries are not always repeated.
What was measured:
[1] = tested on: cell line treated as in Experimental Example 1; test: LDH analysis of remaining cell after NO detection; assay type: cell-based; details: 1% Triton treatment
Description: The remaining cell after NO detection was identified as dead by measuring existence rate and necrosis rate through MTT analysis and LDH analysis.

NCI-H69 = test: MTT analysis, anticancer activity; assay type: cell-based, human; details: MTT, 48 hr
3T3-L1 = test: MTT analysis, cytotoxicity against normal cell line; assay type: cell-based, mouse; details: MTT, 48 hr
HS683 = test: MTT analysis, anticancer activity; assay type: cell-based, human; details: 48 hr
NIH-3T3 [2] = test: Adhesion of cell to Laminin; assay type: cell-based, mouse
Procedure: (§1) After treating HNP-98701 on tissue culture plate coated with the matrices, cancer cell was attached thereupon. To be specific, 50 μl/ml of […], 2 μg/ml of laminin, 2 μg/ml of collagen and 2 μg/ml of gelatin were coated on the surface of 96-well microplate (Corning Co.) per well. After solidifying for 2 hr, HNP-98701 was added to each well and treated for 1 hr. […] After treating the substances for 1 hr, cancer cell was added to each cell, and it was cultured for 3 hr. […] After culturing these cell lines for 3 hr, they were centrifuged. After collecting biomass only, it was washed with distilled water or PBS buffer solution for three times. […] Then, absorbance was measured at 560-405 nm with automatic Eliza detector (Molecular […] Corp., USA). […] Each experiment was performed for three times repeatedly.

SK-Hep-1 [3] = test: Adhesion of cancer cell to Matri-Gel; assay type: cell-based, human
Procedure: as §1

ME-180 = test: MTT analysis, anticancer activity; assay type: cell-based, human; details: MTT, 48 hr
MCF-7 = test: MTT analysis, anticancer activity; assay type: cell-based, human; details: MTT, 48 hr
HS-578T = test: MTT analysis, anticancer activity; assay type: cell-based, human; details: MTT, 48 hr
KATO-III = test: MTT analysis, anticancer activity; assay type: cell-based, human; details: MTT, 48 hr
T-47D = test: MTT analysis, anticancer activity; assay type: cell-based, human; details: 48 hr
293 = test: MTT analysis, cytotoxicity against normal cell line; assay type: cell-based, human; details: MTT, 48 hr
BT-549 = test: MTT analysis, anticancer activity; assay type: cell-based, human; details: MTT, 48 hr
CPAE = test: MTT analysis, cytotoxicity against normal cell line; assay type: cell-based, bovine; details: MTT, 48 hr
NIH-3T3 [4] = test: Adhesion of cell to Gelatin; assay type: cell-based, mouse
Procedure: as §1

SK-BR-3 = test: MTT analysis, anticancer activity; assay type: cell-based, human; details: 48 hr
Hep-2 [5] = test: Adhesion of cancer cell to Collagen; assay type: cell-based, human
Procedure: as §1

SK-Hep-1 [6] = test: Adhesion of cancer cell to Collagen; assay type: cell-based, human
Procedure: as §1

SK-MEL-28 [7] = test: Adhesion of cancer cell to Collagen; assay type: cell-based, human
Procedure: as §1

Hep-2 [8] = test: Adhesion of cancer cell to Gelatin; assay type: cell-based, human
Procedure: as §1

SK-Hep-1 [9] = test: Adhesion of cancer cell to Gelatin; assay type: cell-based, human
Procedure: as §1

SK-MEL-28 [10] = test: Adhesion of cancer cell to Gelatin; assay type: cell-based, human
Procedure: as §1

HS-746T = test: MTT analysis, anticancer activity; assay type: cell-based, human; details: MTT, 48 hr
[11] = tested on: DU-145 prostate cancer cell line; test: MTT analysis, anticancer activity; assay type: cell-based, human; details: 48 hr
BT-20 = test: MTT analysis, anticancer activity; assay type: cell-based, human; details: 48 hr
HeLa = test: MTT analysis, anticancer activity; assay type: cell-based, human; details: 48 hr
HT-29 = test: MTT analysis, anticancer activity; assay type: cell-based, human; details: MTT, 48 hr
A431 = test: MTT analysis, anticancer activity; assay type: cell-based, human; details: 48 hr
NIH-3T3 [12] = test: MTT analysis, cytotoxicity against normal cell line; assay type: cell-based, mouse; details: MTT, 48 hr
[13] = tested on: PC-3 prostate cancer cell line; test: MTT analysis, anticancer activity; assay type: cell-based, human; details: 48 hr
NIH-3T3 [14] = test: Adhesion of cell to Matri-Gel; assay type: cell-based, mouse
Procedure: as §1

T98G = test: MTT analysis, anticancer activity; assay type: cell-based, human; details: 48 hr
HT1080 = test: MTT analysis, anticancer activity; assay type: cell-based, human; details: 48 hr
CHO = test: MTT analysis, cytotoxicity against normal cell line; assay type: cell-based, Chinese hamster; details: MTT, 48 hr
Hep-2 [15] = test: Adhesion of cancer cell to Laminin; assay type: cell-based, human
Procedure: as §1

SK-Hep-1 [16] = test: Adhesion of cancer cell to Laminin; assay type: cell-based, human
Procedure: as §1

SK-MEL-28 [17] = test: Adhesion of cancer cell to Laminin; assay type: cell-based, human
Procedure: as §1

[18] = tested on: SK-Hep-1 liver cancer cell line; test: MTT analysis, anticancer activity; assay type: cell-based, human; details: 48 hr
SK-N-SH = test: MTT analysis, anticancer activity; assay type: cell-based, human; details: 48 hr
SK-MEL-28 [19] = test: MTT analysis, anticancer activity; assay type: cell-based, human; details: 48 hr
HS27 = test: MTT analysis, cytotoxicity against normal cell line; assay type: cell-based, human; details: MTT, 48 hr
LoVo = test: MTT analysis, anticancer activity; assay type: cell-based, human; details: MTT, 48 hr
NIH-3T3 [20] = test: Adhesion of cell to Collagen; assay type: cell-based, mouse
Procedure: as §1

Hep-2 [21] = test: MTT analysis, anticancer activity; assay type: cell-based, human; details: MTT, 48 hr
SK-OV-3 = test: MTT analysis, anticancer activity; assay type: cell-based, human; details: MTT, 48 hr

Triton X-100
LDH Analysis (necrosis rate) [1]: 100%

N.N.[Cl][Pt][Cl] [Cisplatin]
IC50 NCI-H69 (NCI-H69): 0.6382 µg/mL
IC50 3T3-L1 (3T3-L1): 2.7096 µg/mL
IC50 HS683 (HS683): 0.2490 µg/mL
Adhesion NIH-3T3 (%) (NIH-3T3 [2]; 0.5 μg/ml): 93.86%
Adhesion NIH-3T3 (%) (NIH-3T3 [2]; 5 μg/ml): 94.94%
Adhesion NIH-3T3 (%) (NIH-3T3 [2]; 50 μg/ml): 92.45%
Adhesion SK-Hep-1 (%) (SK-Hep-1 [3]; 0.5 μg/ml): 96.41%
Adhesion SK-Hep-1 (%) (SK-Hep-1 [3]; 5 μg/ml): 105.27%
Adhesion SK-Hep-1 (%) (SK-Hep-1 [3]; 50 μg/ml): 108.26%
IC50 ME-180 (ME-180): 0.9365 μg/ml
IC50 MCF-7 (MCF-7): 2.9412 µg/mL
IC50 HS-578T (HS-578T): 2.3317 µg/mL
IC50 KATO-III (KATO-III): 2.2875 µg/mL
IC50 T-47D (T-47D): 2.0468 µg/mL
IC50 293 293: 1.1678 µg/mL
IC50 BT-549 (BT-549): 1.2522 µg/mL
IC50 CPAE (CPAE): 0.8252 µg/mL
Adhesion NIH-3T3 (%) (NIH-3T3 [4]; 0.5 μg/ml): 111.43%
Adhesion NIH-3T3 (%) (NIH-3T3 [4]; 5 μg/ml): 110.48%
Adhesion NIH-3T3 (%) (NIH-3T3 [4]; 50 μg/ml): 100.10%
IC50 SK-BR-3 (SK-BR-3): 1.1748 µg/mL
Adhesion Hep-2 (%) (Hep-2 [5]; 0.5 μg/ml): 92.23%
Adhesion Hep-2 (%) (Hep-2 [5]; 5 μg/ml): 89.35%
Adhesion Hep-2 (%) (Hep-2 [5]; 50 μg/ml): 82.83%
Adhesion SK-Hep-1 (%) (SK-Hep-1 [6]; 0.5 μg/ml): 104.22%
Adhesion SK-Hep-1 (%) (SK-Hep-1 [6]; 5 μg/ml): 104.57%
Adhesion SK-Hep-1 (%) (SK-Hep-1 [6]; 50 μg/ml): 95.90%
Adhesion SK-MEL-28 (%) (SK-MEL-28 [7]; 0.5 μg/ml): 98.46%
Adhesion SK-MEL-28 (%) (SK-MEL-28 [7]; 5 μg/ml): 106.83%
Adhesion SK-MEL-28 (%) (SK-MEL-28 [7]; 50 μg/ml): 117.62%
Adhesion Hep-2 (%) (Hep-2 [8]; 0.5 μg/ml): 97.20%
Adhesion Hep-2 (%) (Hep-2 [8]; 5 μg/ml): 100.13%
Adhesion Hep-2 (%) (Hep-2 [8]; 50 μg/ml): 91.07%
Adhesion SK-Hep-1 (%) (SK-Hep-1 [9]; 0.5 μg/ml): 79.16%
Adhesion SK-Hep-1 (%) (SK-Hep-1 [9]; 5 μg/ml): 74.84%
Adhesion SK-Hep-1 (%) (SK-Hep-1 [9]; 50 μg/ml): 61.25%
Adhesion SK-MEL-28 (%) (SK-MEL-28 [10]; 0.5 μg/ml): 92.48%
Adhesion SK-MEL-28 (%) (SK-MEL-28 [10]; 5 μg/ml): 91.13%
Adhesion SK-MEL-28 (%) (SK-MEL-28 [10]; 50 μg/ml): 86.40%
IC50 HS-746T (HS-746T): 2.7680 µg/mL
IC50 DU-145 [11]: 3.0012 µg/mL
IC50 BT-20 (BT-20): 1.4578 µg/mL
IC50 HeLa (HeLa): 5.3358 µg/mL
IC50 HT-29 (HT-29): 6.1224 µg/mL
IC50 A431 (A431): 0.4240 µg/mL
IC50 NIH-3T3 (NIH-3T3 [12]): 1.9756 µg/mL
IC50 PC-3 [13]: 2.4867 µg/mL
Adhesion NIH-3T3 (%) (NIH-3T3 [14]; 0.5 μg/ml): 105.67%
Adhesion NIH-3T3 (%) (NIH-3T3 [14]; 5 μg/ml): 102.40%
Adhesion NIH-3T3 (%) (NIH-3T3 [14]; 50 μg/ml): 101.06%
IC50 T98G (T98G): 7.9216 µg/mL
IC50 HT1080 (HT1080): 2.9512 µg/mL
IC50 CHO (CHO): 2.8462 µg/mL
Adhesion Hep-2 (%) (Hep-2 [15]; 0.5 μg/ml): 102.63%
Adhesion Hep-2 (%) (Hep-2 [15]; 5 μg/ml): 101.25%
Adhesion Hep-2 (%) (Hep-2 [15]; 50 μg/ml): 95.87%
Adhesion SK-Hep-1 (%) (SK-Hep-1 [16]; 0.5 μg/ml): 95.65%
Adhesion SK-Hep-1 (%) (SK-Hep-1 [16]; 5 μg/ml): 93.53%
Adhesion SK-Hep-1 (%) (SK-Hep-1 [16]; 50 μg/ml): 88.74%
Adhesion SK-MEL-28 (%) (SK-MEL-28 [17]; 0.5 μg/ml): 110.19%
Adhesion SK-MEL-28 (%) (SK-MEL-28 [17]; 5 μg/ml): 105.36%
Adhesion SK-MEL-28 (%) (SK-MEL-28 [17]; 50 μg/ml): 101.16%
IC50 SK-Hep-1 [18]: 5.4350 µg/mL and 4.2950 µg/mL
IC50 SK-N-SH (SK-N-SH): 2.1178 µg/mL
IC50 SK-MEL-28 (SK-MEL-28 [19]): 4.3157 µg/mL
IC50 HS27 (HS27): 1.7853 µg/mL
IC50 LoVo (LoVo): 0.7318 µg/mL
Adhesion NIH-3T3 (%) (NIH-3T3 [20]; 0.5 μg/ml): 112.51%
Adhesion NIH-3T3 (%) (NIH-3T3 [20]; 5 μg/ml): 108.91%
Adhesion NIH-3T3 (%) (NIH-3T3 [20]; 50 μg/ml): 98.94%
IC50 Hep-2 (Hep-2 [21]): 0.5518 µg/mL
IC50 SK-OV-3 (SK-OV-3): 5.3442 µg/mL

Source: US20040024055A1, “Pharmaceutical composition containing the exract of saururus chinensis baill useful as an anticancer agent and a process for the preparation thereof” (priority 2000, published 2004)
